# Counter-ions that a name gives are not always drawn. Like-named read-outs stand apart in the source and are kept apart here.
# Assays:
# [1] = test system: A/Lyon/969/09 (H1N1)pdm09 virus; experiment: microbe, parasite or virus in culture; format: cell-based, influenza A(H1N1)pdm09 virus; conditions: Influenza A virus, 6 h pre-treatment only, A549, Figure 2B
# [2] = test system: A/Lyon/969/09 (H1N1)pdm09 virus; experiment: microbe, parasite or virus in culture; format: cell-based, influenza A(H1N1)pdm09 virus
# [3] = test system: influenza A/Quebec/144147/09 (H1N1)pdm09 virus; format: in vivo, C57BL/6N mice; conditions: for Clinical benefit in terms of survival vs saline (placebo) group: mg/kg/day: oseltamivir 10, monensin 10, diltiazem 90, etilefrine 3, lanatoside C 100, prednisolone 5, flucytosine 240, felbinac 5, timolol 50; for Weight loss vs saline (placebo) group: oseltamivir 10, diltiazem 90, etilefrine 3 mg/kg/day
# [4] = test system: influenza A/Quebec/144147/09 (H1N1)pdm09 virus; format: in vivo, C57BL/6N mice; conditions: […]; for Survival: mg/kg/day: oseltamivir 10, monensin 10, diltiazem 90, etilefrine 3; for Weight loss: oseltamivir 10, monensin 10, diltiazem 90 mg/kg/day
# [5] = test system: A(H1N1)pdm09 virus; format: cell-based, influenza virus; conditions: for Viral titer, Dilution #2: virus 10^5 TCID50/mL pre-incubated 1 h; for Viral titer, Dilution #2 / Viral titer, Dilution #1: diltiazem 9 µM, etilefrine 18 µM, oseltamivir 1 µM; for Viral titer, Dilution #1: virus 10^6 TCID50/mL pre-incubated 1 h; for Mean relative Viral production: virus pre-incubated 1 h, relative to PBS control
# [6] = test system: influenza A/Lyon/969/09 (H1N1)pdm09 virus; format: cell-based
# [7] = test system: MucilAir® human airway epithelium; format: cell-based
# [8] = test system: A/Texas/126/2016 (H3N2); experiment: Antiviral efficacy in A549 cells, H3N2 strain; format: cell-based, influenza virus
# [9] = test system: B/Massachusetts/2/2106; experiment: Antiviral efficacy in A549 cells, B strain; format: cell-based, influenza virus
# [10] = Influenza A virus, H1N1, 48 h, pre-treatment/treatment in vitro, A549, […], read-out: EC50
# [11] = 24 h p.i., oseltamivir 0.1 µM, diltiazem 9 µM or both
# [12] = 48 h p.i., oseltamivir 0.1 µM, diltiazem 9 µM or both
# [13] = 96 h p.i., oseltamivir 0.1 µM, diltiazem 9 µM or both
# [14] = oseltamivir 1 μM, diltiazem 90 μM
# [15] = pre-treatment/treatment in vitro, A549, […], read-out: EC50
smiles,measurement,setting,value
CC[C@@]1([C@@H]2O[C@@H]([C@H]3O[C@@](O)(CO)[C@H](C)C[C@@H]3C)C[C@@H]2C)CC[C@H]([C@]2(C)CC[C@]3(C[C@H](O)[C@@H](C)[C@@H]([C@@H](C)[C@@H](OC)[C@H](C)C(=O)O)O3)O2)O1 [Monensin],EC50,[1],110 nM
same,EC50,[2]; [10],3.27 nM
same,Clinical benefit in terms of survival vs saline (placebo) group,[3],clinical improvement
same,Survival,[4],completely prevented mortality
same,Weight loss,[4],reduced weight loss
CCN(CC)CCOC(=O)C(c1ccccc1)c1ccccc1 [Adiphenine],EC50,[2]; [10],6.29 nM
COc1cc(NS(=O)(=O)c2ccc(N)cc2)nc(OC)n1 [Sulfadimethoxine],EC50,[2]; [10],0.69 nM
O=NN(CCCl)C(=O)NCCCl [Carmustine],EC50,[2]; [10],0.07 nM
Nc1[nH]c(=O)ncc1F [Flucytosine],EC50,[2]; [10],2.02 nM
same,Clinical benefit in terms of survival vs saline (placebo) group,[3],no clinical benefit
"CC[C@H]1OC(=O)[C@H](C)[C@@H](O[C@H]2C[C@@](C)(OC)[C@@H](O)[C@H](C)O2)[C@H](C)[C@@H](O[C@@H]2O[C@H](C)C[C@H](N(C)C)[C@H]2O)[C@](C)(O)C[C@@H](C)/C(=N\OCOCCOC)[C@H](C)[C@@H](O)[C@]1(C)O [Roxythromycin, Roxithromycin]",EC50,[2]; [10],0.14 nM
O=c1cc(-c2ccc(O)cc2)oc2cc(O)cc(O)c12 [Apigenin],EC50,[2]; [10],0.21 nM
CCOC(=O)C1=C[C@@H](OC(CC)CC)[C@H](NC(C)=O)[C@@H](N)C1 [Oseltamivir],"Viral titer, Dilution #2",[5],4.30 log TCID50/ml
same,"Viral titer, Dilution #1",[5],5.63 log TCID50/ml
same,Mean relative Viral production,[5],130.3 % of mock-treated
same,Clinical benefit in terms of survival vs saline (placebo) group,[3],clinical improvement
same,Weight loss vs saline (placebo) group,[3],clinical improvement
same,Survival,[4],completely prevented mortality
same,Mice rescued from death,"[4]; oseltamivir 10 mg/kg/day, diltiazem 90 mg/kg/day",40%
same,Weight loss,[4],reduced weight loss
same,Apical viral titer log TCID50/ml (CI95),[6]; [11],6.02 (4.69 – 7.35) log TCID50/ml
same,Apical viral titer log TCID50/ml (CI95),[6]; [12],8.61 (7.43 – 9.80) log TCID50/ml
same,Apical viral titer log TCID50/ml (CI95),"[6]; 72 h p.i., oseltamivir 0.1 µM, diltiazem 9 µM or both",8.30 (7.73 – 8.87) log TCID50/ml
same,Apical viral titer log TCID50/ml (CI95),[6]; [13],7.80 (6.56 – 9.04) log TCID50/ml
same,Apical viral titer log TCID50/ml (CI95),"[6]; 96 h p.i., oseltamivir 1 µM, diltiazem 90 µM or both",7.09 (5.79 – 8.40) log TCID50/ml
same,Effect on viral replication vs untreated control,"[6]; oseltamivir 0.1 μM, diltiazem 9 μM (CMAP) or both, from 5 h p.i., once daily 5 days",no significant advantage over the untreated control
same,Reduction in apical viral titers at 48 h p.i. compared to the untreated control,[6]; [14],> 3 log
same,Virus on the basolateral medium,[6]; [14],No virus was detected
same,Delay of the peak of viral production,"[6]; oseltamivir 1 μM, diltiazem 90 μM (10-fold CMAP)",24 h
same,Reduction in apical peak viral titers compared to the untreated control,"[6]; oseltamivir 1 μM, diltiazem 90 μM or both, 48 h p.i. untreated vs. 72 h p.i. treated",> 2 log
same,Δ TEER (CI95),[7]; [11],8.98 (-81.72 – 99.68) Ohm/cm^2
same,Δ TEER (CI95),"[7]; 24 h p.i., oseltamivir 1 µM, diltiazem 90 µM or both",-24.32 (-58.00 – 9.36) Ohm/cm^2
same,Δ TEER (CI95),[7]; [12],20.09 (-39.75 – 79.94) Ohm/cm^2
same,Δ TEER (CI95),"[7]; 48 h p.i., oseltamivir 1 µM, diltiazem 90 µM or both",7.26 (-85.73 – 100.3) Ohm/cm^2
same,Δ TEER (CI95),[7]; [13],-209.2 (-271.5 – -146.8) Ohm/cm^2
same,TEER during the time-course of infection,"[7]; oseltamivir 1 μM, diltiazem 90 μM or both",stabilized TEER
"CN(C)CCN(Cc1ccc(Cl)cc1)c1ccccn1 [Choropyramine, Chloropyramine]",EC50,[2]; [10],0.07 nM
Nc1nc(=O)c2nc(CNc3ccc(C(=O)N[C@@H](CCC(=O)O)C(=O)O)cc3)cnc2[nH]1 [Folic acid],EC50,[2]; [10],0.22 nM
OC(CCN1CCCCC1)(c1ccccc1)C1CC2C=CC1C2 (centres unmarked) [Biperiden],EC50,[2]; [10],0.38 nM
CNC(=C[N+](=O)[O-])NCCSCc1ccc(CN(C)C)o1 [Ranitidine],EC50,[1],1100 nM
same,EC50,[2]; [10],0.68 nM
CC(C)(C)NC[C@H](O)COc1nsnc1N1CCOCC1 [Timolol],Clinical benefit in terms of survival vs saline (placebo) group,[3],no clinical benefit
CCNCC(O)c1cccc(O)c1 (centres unmarked) [Etilefrine],EC50,[2]; [10],0.34 nM
same,Relative Viral production,[8]; dose CMAP,1 % of mock-treated
same,Viral titer,[8]; dose CMAP,3.63 log TCID50/ml
same,Relative Viral production,[8]; dose CMAP/10,14.7 % of mock-treated
same,Viral titer,[8]; dose CMAP/10,4.8 log TCID50/ml
same,Relative Viral production,[9]; dose CMAP,7.3 % of mock-treated
same,Viral titer,[9]; dose CMAP,3.97 log TCID50/ml
same,Relative Viral production,[9]; dose CMAP/10,15.0 % of mock-treated
same,Viral titer,[9]; dose CMAP/10,4.3 log TCID50/ml
same,Effect of virus pre-incubation on final viral titers vs PBS-incubated controls,[5]; pre-incubation before infection,did not affect final viral titers
same,"Viral titer, Dilution #2",[5],4.63 log TCID50/ml
same,"Viral titer, Dilution #1",[5],5.30 log TCID50/ml
same,Mean relative Viral production,[5],100.0 % of mock-treated
same,Clinical benefit in terms of survival vs saline (placebo) group,[3],significantly improved survival
same,Weight loss vs saline (placebo) group,[3],significantly improved
same,Reduction in lung viral titers (LVTs) on day 5 p.i.,"[3]; mouse, in vivo",at least 1 log
same,Survival,[4],50%
"CNC(C)C1CCC(N)C(OC2C(N)CC(N)C(OC3OCC(C)(O)C(NC)C3O)C2O)O1 (centres unmarked) [Gentamycin, Gentamicin]",EC50,[2]; [10],0.039 nM
CCCCCCC[N+](CC)(CC)CCCCc1ccc(Cl)cc1 [Clofilium tosylate],EC50,[2]; [15],0.16 nM
C[C@]12C=CC(=O)C=C1CC[C@@H]1[C@@H]2[C@@H](O)C[C@@]2(C)[C@H]1CC[C@]2(O)C(=O)CO [prednisolone],Clinical benefit in terms of survival vs saline (placebo) group,[3],no clinical benefit
CC(=O)O[C@H]1C[C@@]2(C)[C@@H](C[C@@H](O)[C@H]3[C@@]4(C)CC[C@@H](O)[C@@H](C)[C@@H]4CC[C@@]32C)/C1=C(\CCC=C(C)C)C(=O)O [Fusidic acid],EC50,[2]; [10],0.038 nM
CC(C)NCC(O)COc1cccc2[nH]ccc12 (centres unmarked) [Pindolol],EC50,[2]; [10],0.79 nM
c1ccc(CC2=NCCN2)cc1 [Tolazoline],EC50,[2]; [10],0.93 nM
O=C(O)Cc1ccc(-c2ccccc2)cc1 [Felbinac],EC50,[2]; [10],34.4 nM
same,Clinical benefit in terms of survival vs saline (placebo) group,[3],no clinical benefit
NC(=O)c1ncn([C@@H]2O[C@H](CO)[C@@H](O)[C@H]2O)n1 [Ribavirin],EC50,"[2]; Influenza A virus, H1N1, A549, 48 h",0.86 nM
O=c1c(-c2ccc(O)cc2)coc2cc(O)cc(O)c12 [Genistein],EC50,[2]; [10],1.06 nM
COc1cc(NS(=O)(=O)c2ccc(N)cc2)ncn1 [Sulfamonomethoxine],EC50,[2]; [10],0.28 nM
CC(=O)O[C@H]1C[C@H](O[C@H]2[C@@H](O)C[C@H](O[C@H]3[C@@H](O)C[C@H](O[C@H]4CC[C@@]5(C)[C@H](CC[C@@H]6[C@@H]5C[C@@H](O)[C@]5(C)[C@@H](C7=CC(=O)OC7)CC[C@]65O)C4)O[C@@H]3C)O[C@@H]2C)O[C@H](C)[C@H]1O[C@@H]1O[C@H](CO)[C@@H](O)[C@H](O)[C@H]1O [Lanatoside C],Clinical benefit in terms of survival vs saline (placebo) group,[3],no clinical benefit
N=C(N)NC(=O)c1nc(Cl)c(N)nc1N [Amiloride],EC50,[2]; [10],0.41 nM
"CC1(C)S[C@@H]2[C@H](NC(=O)Cc3ccccc3)C(=O)N2[C@H]1C(=O)O [Benzathin Benzylpenicilline, Benzathine benzylpenicillin]",EC50,[2]; [15],0.26 nM
"C[C@H](CCC(=O)O)[C@H]1CC[C@H]2[C@@H]3[C@@H](O)C[C@@H]4C[C@H](O)CC[C@]4(C)[C@H]3CC[C@]12C [Urseodeoxycholic acid, Ursodeoxycholic acid]",EC50,[2]; [10],0.61 nM
